Assay [1] deals with Transient receptor potential cation channel subfamily V member 1 (Rattus norvegicus, UniProt O35433).
Assay [2] concerns the target Transient receptor potential cation channel subfamily V member 1 (Homo sapiens, UniProt Q8NER1).

Sequence of Transient receptor potential cation channel subfamily V member 1 (Rattus norvegicus, UniProt O35433) (O35433 whole entry): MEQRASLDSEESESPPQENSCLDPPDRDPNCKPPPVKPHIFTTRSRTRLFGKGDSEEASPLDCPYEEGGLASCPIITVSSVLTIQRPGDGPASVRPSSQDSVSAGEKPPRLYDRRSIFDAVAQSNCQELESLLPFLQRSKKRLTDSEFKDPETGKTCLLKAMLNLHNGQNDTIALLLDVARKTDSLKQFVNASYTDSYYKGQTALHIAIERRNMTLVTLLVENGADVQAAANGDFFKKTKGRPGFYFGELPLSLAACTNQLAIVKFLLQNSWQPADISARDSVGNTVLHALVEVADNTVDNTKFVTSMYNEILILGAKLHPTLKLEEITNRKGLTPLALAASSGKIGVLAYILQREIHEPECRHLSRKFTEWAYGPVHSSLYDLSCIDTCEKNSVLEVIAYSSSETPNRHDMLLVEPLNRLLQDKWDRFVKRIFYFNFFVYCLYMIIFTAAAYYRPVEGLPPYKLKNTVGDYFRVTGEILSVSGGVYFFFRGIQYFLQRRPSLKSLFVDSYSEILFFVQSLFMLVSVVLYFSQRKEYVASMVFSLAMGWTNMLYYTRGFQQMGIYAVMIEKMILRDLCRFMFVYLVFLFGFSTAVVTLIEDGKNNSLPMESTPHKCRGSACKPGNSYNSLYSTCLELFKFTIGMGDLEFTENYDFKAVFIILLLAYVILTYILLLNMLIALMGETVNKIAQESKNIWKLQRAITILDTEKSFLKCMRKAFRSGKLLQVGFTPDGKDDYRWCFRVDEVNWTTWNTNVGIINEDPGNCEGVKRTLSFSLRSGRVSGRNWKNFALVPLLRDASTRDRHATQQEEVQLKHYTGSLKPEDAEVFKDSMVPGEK
Sequence of Transient receptor potential cation channel subfamily V member 1 (Homo sapiens, UniProt Q8NER1) (Q8NER1 whole entry): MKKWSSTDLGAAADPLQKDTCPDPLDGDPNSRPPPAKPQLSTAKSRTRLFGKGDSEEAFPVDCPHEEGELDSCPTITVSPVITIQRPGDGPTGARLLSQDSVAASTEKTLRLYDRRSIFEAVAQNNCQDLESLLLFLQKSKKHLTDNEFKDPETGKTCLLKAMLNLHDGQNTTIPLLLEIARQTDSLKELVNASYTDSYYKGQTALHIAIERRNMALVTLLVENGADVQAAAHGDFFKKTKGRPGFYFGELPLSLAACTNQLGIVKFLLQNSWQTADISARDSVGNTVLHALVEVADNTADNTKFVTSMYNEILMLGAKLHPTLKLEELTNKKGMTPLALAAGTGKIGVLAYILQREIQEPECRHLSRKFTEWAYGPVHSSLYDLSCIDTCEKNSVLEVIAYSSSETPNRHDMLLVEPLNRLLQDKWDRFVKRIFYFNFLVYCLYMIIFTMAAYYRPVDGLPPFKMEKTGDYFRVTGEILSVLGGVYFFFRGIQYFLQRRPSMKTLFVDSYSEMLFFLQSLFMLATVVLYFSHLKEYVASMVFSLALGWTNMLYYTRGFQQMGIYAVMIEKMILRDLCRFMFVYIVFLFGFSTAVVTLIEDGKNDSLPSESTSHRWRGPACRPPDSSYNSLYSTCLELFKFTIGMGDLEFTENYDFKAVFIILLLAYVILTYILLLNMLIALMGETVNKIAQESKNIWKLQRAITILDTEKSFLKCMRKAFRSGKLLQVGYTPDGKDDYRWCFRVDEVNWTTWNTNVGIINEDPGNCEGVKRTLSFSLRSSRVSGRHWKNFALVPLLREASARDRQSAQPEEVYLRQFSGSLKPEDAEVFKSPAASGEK

`Oc1cc2c(cc1O)CN(C(=S)NCCc1ccc(Cl)cc1)CCC2` [N-[2-(4-chlorophenyl)ethyl]-7,8-dihydroxy-2,3,4,5-tetrahydro-1H-2-benzazepine-2-carbothioamide] gave a Ki in assay [1] of 4300 nM.

With `C=C(C)[C@]12C[C@@H](C)[C@@]34O[C@](Cc5ccccc5)(O[C@@H]1[C@@H]3C(COC(=O)Cc1cc(I)c(O)c(OC)c1)=CC[C@@H]1C(=O)C(C)=C[C@H]14)O2` [5'-IODORESINIFERATOXIN], the figures for the Ki in assay [2] and in assay [1] were 6.7 nM and 0.39 nM, respectively.

One may read the Ki as the equilibrium dissociation constant of an inhibitor or competing ligand from its target.

These data come from BindingDB's records for doi:10.1124/jpet.102.040394 (Merck Sharp and Dohme Research Laboratories, 2002).
